One block for each compound: values may come before it.
Legend:
[1] = cited from earlier work; for Solubility (in words): background statement
[2] = Swine trial (16 barrows, 14 days): zinc in ileal, cecal and fecal samples and zinc digestibility; assay type: in vivo; conditions: pigs
Text: A representative animal trial used a group of 16 barrows (castrated male pigs) including of 8 pairs of littermates. […] The littermate pairs were divided in half and randomly assigned to either the control diet or the test diet containing a composition of the presently disclosed subject matter. Each diet was formulated using a basal diet primarily of corn and soybean meal containing 50 ppm Zn from an added vitamin premix. The control diet contained an additional 50 ppm Zn from Basic Zinc Chloride (Zn5Cl2(OH)8.H2O) and the test diet contained an additional 50 ppm Zn from a composition of the presently disclosed subject matter for a total of 100 ppm Zn for each diet to meet the National Research Council recommendation for zinc supplementation of pigs of this size. The composition of the presently disclosed subject matter was prepared as described herein above.
Pigs were fed twice daily at 0800 and 1700 for the entirety of the trial. Daily feed intake for maintenance was determined for each pig at 4% of initial body weight at the beginning of the trial. Each pig was housed in a separate metabolism crate allowing for the quantitative collection of feces and urine. The trial lasted for a total of 14 days; the first 10 days allowed for the pigs to adjust to their new environments and diets. Days 11-13 for were used for twice-daily feces and urine collection. On day 14 all pigs were weighed and humanely euthanized prior to dissections to obtain ileal and cecal content samples. Feces samples and urine samples were pooled daily and stored at −20 C until ready for analysis. Fecal, ileal, and cecal samples were dried at 64 C in a drying oven until no change in mass was observed which took between 48-96 hours for most samples. After being dried completely, samples were sent to Missouri Field Laboratories for analysis of Zn, Titanium dioxide which was used as a feed marker, and proximate nutrient analysis. Pigs gained an average of 7.34 kilograms per pig during the 14 day trial.
The control diet, containing all supplemental zinc from basic zinc chloride, contained 134 ppm zinc. […] This may be indicative of the composition of the presently disclosed subject matter having higher levels of zinc than used in formulation of the diets.
Using the concentration of zinc found in the feed and ileal, cecal and fecal samples, zinc digestibility by the following equation: 100−[100*(zinc in feed/zinc in feces)]. Since the amounts of zinc present in the diets were over the zinc requirement of pigs of this size and age, the extra zinc in the diets employing a composition of the presently disclosed subject matter (referred to as “Experimental” in Table 2) may have affected the zinc digestibility results.

[3] = Solubility in water; assay type: physicochemical; conditions: description of the patent's own materials
[4] = 100-[100*(zinc in feed/zinc in sample)]

Compound: [Cl-].[Cl-].[Zn+2] [ZnCl2]
Solubility (amount that dissolves in 1 L of water) ([1]; in 1 L of water): 4 kg

Compound: [O]=[Zn] [Zinc oxide]
Solubility (in words) [1]: relatively insoluble except in acid

Percent more zinc in ileal contents than in cecal contents [2]: 2.2%
Concentration of Zinc found in contents of the cecum ([2]; dried cecal contents, day 14, diet zinc found 134 ppm (control) / 152 ppm (experimental)): 399 ppm
Concentration of Zinc found in feces ([2]; dried feces collected days 11-13, diet zinc found 134 ppm (control) / 152 ppm (experimental)): 678 ppm
Concentration of Zinc found in contents of the ileum ([2]; dried ileal contents, day 14, diet zinc found 134 ppm (control) / 152 ppm (experimental)): 408 ppm
Percent Digestibility of Zinc in Feed, Fecal ([2]; 100-[100*(zinc in feed/zinc in feces)]): 80.2%
Percent Digestibility of Zinc in Feed, Cecal [2, 4]: 66.1%
Percent Digestibility of Zinc in Feed, Ileal [2, 4]: 62.6%
Share of total zinc excreted in feces ([2]; fecal zinc vs total of ileal, cecal and fecal zinc): 45.7%
Share of total zinc retained in ilium+cecum ([2]; ileal+cecal zinc vs total of ileal, cecal and fecal zinc): 54.3%
Solubility in water / aqueous solution (in words) [3]: highly insoluble in water
Compound: Zn5Cl2(OH)8.H2O [Control]

Compound: O=C([O-])[C@H](O)[C@@H](O)[C@H](O)[C@H](O)CO.O=C([O-])[C@H](O)[C@@H](O)[C@H](O)[C@H](O)CO.[Zn+2] [zinc gluconate, Zn(O2C(CHOH)4CH2OH)2]
Solubility (in words) [1]: highly soluble
